Reference: US10913727B2, “Modulators of the integrated stress pathway” (Calico Life Sciences LLC, priority 2016, dated 2021)

Tested on: HEK293T cells carrying the ATF4 luciferase reporter
Experiment: ATF4-Luc assay, in vitro model of Vanishing Cell White Matter Disease (VWMD)
Format: cell-based
Conditions: Homo sapiens, HEK-293T, 1 μg/mL tunicamycin, 7 hours, One Glo luminescence
Summary of the method: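 Compound at 200 nM and tunicamycin at 1 μg/mL were given together for 7 h to HEK293T cells stably transduced with an ATF4 5′-UTR-driven firefly luciferase reporter. Read-out by luminescence, reported as EC50.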

SMILES | EC50
O=C(COc1ccc(Cl)c(F)c1)NC12CC(NS(=O)(=O)c3ccc(Cl)cn3)(C1)C2 [Compound 661, 2-(4-chloro-3-fluorophenoxy)-N-{3-[(5-chloropyridine-2-sulfonyl)amino]bicyclo[1.1.1]pentan-1-yl}acetamide] | > 2000 nM
O=C(COc1ccc(Cl)c(F)c1)NC12CCC(NC(=O)c3cccc(F)c3)(CC1)[C@@H](O)C2 [Compound 488, N-{(2S)-4-[2-(4-chloro-3-fluorophenoxy)acetamido]-2-hydroxybicyclo[2.2.2]octan-1-yl}-3-fluorobenzamide] | 50 to 250 nM
CCc1nc(C)c(C(=O)NC23CC(NC(=O)COc4ccc(Cl)c(F)c4)(C2)C3)s1 [Compound 294, N-{3-[2-(4-chloro-3-fluorophenoxy)acetamido]bicyclo[1.1.1]pentan-1-yl}-2-ethyl-4-methyl-1,3-thiazole-5-carboxamide] | 50 to 250 nM
Cc1cccn2cc(C(=O)NC34CCC(NC(=O)COc5ccc(Cl)c(F)c5)(CC3)C(O)C4)nc12 (stereo not drawn) [Compound 599, N-{4-[2-(4-chloro-3-fluorophenoxy)acetamido]-3-hydroxybicyclo[2.2.2]octan-1-yl}-8-methylimidazo[1,2-a]pyridine-2-carboxamide] | 250 to 1000 nM
O=C(COc1ccc(Cl)c(F)c1)NC12CC(Nc3cncc(N4CCOCC4)n3)(C1)C2 [Compound 744, 2-(4-chloro-3-fluorophenoxy)-N-(3-{[6-(morpholin-4-yl)pyrazin-2-yl]amino}bicyclo[1.1.1]pentan-1-yl)acetamide] | 250 to 1000 nM
CC(C)(C)OC(=O)NCc1ccnc(C(=O)NC23CC(NC(=O)COc4ccc(Cl)c(Cl)c4)(C2)C3)c1 [Compound 580, tert-butyl {[2-({3-[2-(3,4-dichlorophenoxy)acetamido]bicyclo[1.1.1]pentan-1-yl}carbamoyl)pyridin-4-yl]methyl}carbamate] | > 2000 nM
COc1cc(C(=O)NC23CC(NC(=O)COc4ccc(Cl)c(F)c4)(C2)C3)ccn1 [Compound 763, N-{3-[2-(4-chloro-3-fluorophenoxy)acetamido]bicyclo[1.1.1]pentan-1-yl}-2-methoxypyridine-4-carboxamide] | > 2000 nM
COc1nccnc1C(=O)NC12CCC(NC(=O)COc3ccc(Cl)c(F)c3)(CC1)C(O)C2 (stereo not drawn) [Compound 274, N-{4-[2-(4-chloro-3-fluorophenoxy)acetamido]-3-hydroxybicyclo[2.2.2]octan-1-yl}-3-methoxypyrazine-2-carboxamide] | 250 to 1000 nM
O=C(COc1ccc(Cl)c(F)c1)NC12CC(Nc3nc4ccccc4o3)(C1)C2 [Compound 360, N-{3-[(1,3-benzoxazol-2-yl)amino]bicyclo[1.1.1]pentan-1-yl}-2-(4-chloro-3-fluorophenoxy)acetamide] | > 2000 nM
O=C(COc1ccc(Cl)c(F)c1)NC12CC(NC(=O)c3ccc(OC(F)F)cn3)(C1)C2 [Compound 152, N-{3-[2-(4-chloro-3-fluorophenoxy)acetamido]bicyclo[1.1.1]pentan-1-yl}-5-(difluoromethoxy)pyridine-2-carboxamide] | 50 to 250 nM
Cc1cc2c(NC34CC(NC(=O)COc5ccc(OC(F)F)cc5)(C3)C4)nccn2n1 [Compound 438, 2-[4-(difluoromethoxy)phenoxy]-N-{3-[(2-methylpyrazolo[1,5-a]pyrazin-4-yl)amino]bicyclo[1.1.1]pentan-1-yl}acetamide] | 250 to 1000 nM
COc1ccnc(C(=O)NC23CC(NC(=O)COc4ccc(Cl)c(F)c4)(C2)C3)c1 [Compound 177, N-{3-[2-(4-chloro-3-fluorophenoxy)acetamido]bicyclo[1.1.1]pentan-1-yl}-4-methoxypyridine-2-carboxamide] | 250 to 1000 nM
O=C(COc1ccc(Cl)c(F)c1)NC12CCC(NC(=O)c3cc(O)no3)(CC1)CC2O (stereo not drawn) [Compound 411, N-{4-[2-(4-chloro-3-fluorophenoxy)acetamido]-3-hydroxybicyclo[2.2.2]octan-1-yl}-3-hydroxy-1,2-oxazole-5-carboxamide] | > 2000 nM
O=C(COc1ccc(Cl)c(F)c1)NC12CC(NC(=O)c3cnc4sccc4c3)(C1)C2 [Compound 723, N-{3-[2-(4-chloro-3-fluorophenoxy)acetamido]bicyclo[1.1.1]pentan-1-yl}thieno[2,3-b]pyridine-5-carboxamide] | 250 to 1000 nM
COc1ccc(C(=O)NC23CC(NC(=O)COc4ccc(Cl)c(F)c4)(C2)C3)nc1 [Compound 141, N-{3-[2-(4-chloro-3-fluorophenoxy)acetamido]bicyclo[1.1.1]pentan-1-yl}-5-methoxypyridine-2-carboxamide] | 250 to 1000 nM
O=C(COc1ccc(Cl)c(F)c1)NC12CC(NC(=O)c3csc(N4CCOCC4)n3)(C1)C2 [Compound 771, N-{3-[2-(4-chloro-3-fluorophenoxy)acetamido]bicyclo[1.1.1]pentan-1-yl}-2-(morpholin-4-yl)-1,3-thiazole-4-carboxamide] | > 2000 nM
COc1cc(C(=O)NC23CC(NC(=O)COc4ccc(Cl)c(F)c4)(C2)C3)on1 [Compound 253, N-{3-[2-(4-chloro-3-fluorophenoxy)acetamido]bicyclo[1.1.1]pentan-1-yl}-3-methoxy-1,2-oxazole-5-carboxamide] | 50 to 250 nM

SMILES | EC50
Cc1onc(C(=O)NC23CC(NC(=O)COc4ccc(Cl)c(F)c4)(C2)C3)c1C [Compound 901, N-{3-[2-(4-chloro-3-fluorophenoxy)acetamido]bicyclo[1.1.1]pentan-1-yl}-4,5-dimethyl-1,2-oxazole-3-carboxamide] | > 2000 nM
CC(C)(O)c1cccc(C(=O)NC23CC(NC(=O)COc4ccc(Cl)c(F)c4)(C2)C3)c1 [Compound 386, N-{3-[2-(4-chloro-3-fluorophenoxy)acetamido]bicyclo[1.1.1]pentan-1-yl}-3-(2-hydroxypropan-2-yl)benzamide] | > 2000 nM
O=C(COc1ccc(Cl)c(Cl)c1)NC12CC(NC(=O)c3cccc(CO)n3)(C1)C2 [Compound 165, N-{3-[2-(3,4-dichlorophenoxy)acetamido]bicyclo[1.1.1]pentan-1-yl}-6-(hydroxymethyl)pyridine-2-carboxamide] | > 2000 nM
O=C(COc1ccc(Cl)c(F)c1)NC12CC(Nc3cnn(CC(F)(F)F)c(=O)c3Cl)(C1)C2 [Compound 416, 2-(4-chloro-3-fluorophenoxy)-N-(3-{[5-chloro-6-oxo-1-(2,2,2-trifluoroethyl)-1,6-dihydropyridazin-4-yl]amino}bicyclo[1.1.1]pentan-1-yl)acetamide] | > 2000 nM
COC/C=C/c1cnc(C(=O)NC23CC(NC(=O)COc4ccc(Cl)c(F)c4)(C2)C3)cn1 [Compound 171, N-{3-[2-(4-chloro-3-fluorophenoxy)acetamido]bicyclo[1.1.1]pentan-1-yl}-5-[(1E)-3-methoxyprop-1-en-1-yl]pyrazine-2-carboxamide] | 50 to 250 nM
Cc1ncc(C(=O)NC23CCC(NC(=O)COc4ccc(Cl)c(F)c4)(CC2)C(O)C3)s1 (stereo not drawn) [Compound 471, N-{4-[2-(4-chloro-3-fluorophenoxy)acetamido]-3-hydroxybicyclo[2.2.2]octan-1-yl}-2-methyl-1,3-thiazole-5-carboxamide] | 50 to 250 nM
Cc1cnc(C(=O)NC23CC(NC(=O)COc4ccc(Cl)c(F)c4)(C2)C3)o1 [Compound 478, N-{3-[2-(4-chloro-3-fluorophenoxy)acetamido]bicyclo[1.1.1]pentan-1-yl}-5-methyl-1,3-oxazole-2-carboxamide] | 50 to 250 nM
Cc1cc(C(=O)NC23CC(NC(=O)COc4ccc(Cl)c(Cl)c4)(C2)C3)n(CC(C)(C)O)n1 [Compound 460, N-{3-[2-(3,4-dichlorophenoxy)acetamido]bicyclo[1.1.1]pentan-1-yl}-1-(2-hydroxy-2-methylpropyl)-3-methyl-1H-pyrazole-5-carboxamide] | > 2000 nM
O=C(COc1ccc(Cl)c(Cl)c1)NC12CC(NC(=O)c3cnc(-c4ccccc4)o3)(C1)C2 [Compound 740, N-{3-[2-(3,4-dichlorophenoxy)acetamido]bicyclo[1.1.1]pentan-1-yl}-2-phenyl-1,3-oxazole-5-carboxamide] | < 50 nM
Cc1cc(C(=O)NC23CC(NC(=O)COc4ccc(Cl)c(F)c4)(C2)C3)n(C(F)F)n1 [Compound 913, N-{3-[2-(4-chloro-3-fluorophenoxy)acetamido]bicyclo[1.1.1]pentan-1-yl}-1-(difluoromethyl)-3-methyl-1H-pyrazole-5-carboxamide] | 250 to 1000 nM
Cc1cn2ccnc(NC34CC(NC(=O)COc5ccc(Cl)c(F)c5)(C3)C4)c2n1 [Compound 463, 2-(4-chloro-3-fluorophenoxy)-N-{3-[(2-methylimidazo[1,2-a]pyrazin-8-yl)amino]bicyclo[1.1.1]pentan-1-yl}acetamide] | 50 to 250 nM
CCOC(=O)c1cc(C(=O)NC23CC(NC(=O)COc4ccc(Cl)c(F)c4)(C2)C3)ccn1 [Compound 279, ethyl 4-({3-[2-(4-chloro-3-fluorophenoxy)acetamido]bicyclo[1.1.1]pentan-1-yl}carbamoyl)pyridine-2-carboxylate] | 250 to 1000 nM
O=C(COc1ccc(Cl)c(F)c1)NC12CC(NC(=O)c3cnc4ccccc4c3)(C1)C2 [Compound 587, N-{3-[2-(4-chloro-3-fluorophenoxy)acetamido]bicyclo[1.1.1]pentan-1-yl}quinoline-3-carboxamide] | 50 to 250 nM
Cc1cc(C(=O)NC23CC(NC(=O)COc4ccc(Cl)c(F)c4)(C2)C3)nn1-c1ccc(Cl)cc1 [Compound 112, N-{3-[2-(4-chloro-3-fluorophenoxy)acetamido]bicyclo[1.1.1]pentan-1-yl}-1-(4-chlorophenyl)-5-methyl-1H-pyrazole-3-carboxamide] | 250 to 1000 nM
O=C(COc1ccc2c(c1)OC(F)(F)O2)NC12CC(NC(=O)c3ccncc3)(C1)C2 [Compound 418, N-(3-{2-[(2,2-difluoro-2H-1,3-benzodioxol-5-yl)oxy]acetamido}bicyclo[1.1.1]pentan-1-yl)pyridine-4-carboxamide] | > 2000 nM
Cc1cc(C(=O)NC23CCC(NC(=O)COc4ccc(Cl)c(F)c4)(CC2)C(O)C3)sn1 (stereo not drawn) [Compound 578, N-{4-[2-(4-chloro-3-fluorophenoxy)acetamido]-3-hydroxybicyclo[2.2.2]octan-1-yl}-3-methyl-1,2-thiazole-5-carboxamide] | < 50 nM
